Data from patent publication US10323228B2, “Differentiation of hepatocyte-like cells from stem cells” (Agency for Science, Technology and Research, priority 2014, dated 2019).
Read-outs that look alike come from different tables or passages of the source.

What was measured:
[1] = test system: GF-Hep (hepatocytes derived from hESCs using growth factors); experiment: Cell viability assay (MTT) of growth factor-derived hepatocytes after 24 hours drug treatment; format: cell-based; settings: Homo sapiens, Hepatocyte, read-out: IC50 GF-Hep
Description: (§1) The differentiation was initiated when hESCs reached a confluence level of approximately 80%. […] Briefly, basal differentiation medium was composed of 60% DMEM-low glucose (Gibco, Carlsbad, Calif., USA), 40% MCDB-201-water (Sigma), 0.25× Linoleic acid—Bovine serum albumin (LA-BSA) (Sigma), 0.25× Insulin-transferrin-selenium (ITS) (Sigma), 100 U/mL Penicillin and 100 μg/mL Streptomycin (Cellgro), 0.1 mM L-Ascorbic Acid (Sigma), 1 μM Dexamethasone (Sigma) and 110 μM 2-mercaptoethanol (Gibco).
(§2) Cell viability of differentiated hepatocytes was measured 24 hours after treatment with drugs using CellTiter 96® Non-Radioactive Cell Proliferation Assay (MTT) (Promega, Madison, Wis., USA) according to manufacturer's instructions. The following drugs were used for the cell viability assays: Acetaminophen, Diclofenac, Digoxin, Chlorpromazine, Troglitazone and Quinidine (all drugs from Sigma). Stock solutions of drugs were prepared in DMSO and then diluted in media to obtain desired working concentrations. Controls were treated with DMSO alone (in absence of test compounds) and considered as 100% viability value.
(§3) One of the major applications of hepatocytes is toxicity screening in order to aid drug development and discovery. Researchers have tried to predict drug-induced cytotoxicity in vitro using HepG2, HepaRG primary human hepatocyte (PH) as well as hESC/hiPSC-derived hepatocyte like cells. Although primary human hepatocyte (PH) are considered the gold standard for drug metabolism and toxicity in vitro, cells lines such as HepG2 and HepaRG are less expensive than primary human hepatocyte (PH) and reproducible experiments are easier to perform than they are with primary human hepatocyte (PHs). However, 30% of the compounds were incorrectly classified as nontoxic. To overcome these problems, it would be highly advantageous if hESC/hiPSC derived hepatocytes could be used to predict drug-induced toxicity. To examine its applicability to drug screening, small molecule-derived hepatocytes (SM-Hep) were treated with various drugs that cause hepatotoxicity. Cell viability, assessed using MTT assay, was compared to growth factor-derived hepatoctyes (GF-Hep) as well as primary human hepatocyte (PH). The susceptibility of small molecule-derived hepatocytes (SM-Hep) to all the drugs tested was similar to that of the growth factor-derived hepatoctyes (GF-Hep) (FIG. 6).

[2] = test system: primary human hepatocytes (PH, PHHs); experiment: Cell viability assay (MTT) of primary human hepatocytes after 24 hours drug treatment; format: cell-based; settings: Hepatocyte, read-out: IC50 PH
Description: Cryopreserved PHHs were obtained from Life Technologies (Carlsbad, Calif., USA) and BD Biosciences (Franklin Lakes, N.J., USA). The cells were thawed in a 37° C. water bath and resuspended in pre-warmed InVitroGRO HT Thawing Medium (Celsis, In Vitro Technologies, Baltimore, Md., USA). The cells were centrifuged at 800 rpm at 4° C. and the cell pellet was resuspended in InVitroGRO CP Plating Medium (containing 0.02% Torpedo Antibiotic Mix). Cells were counted and 50,000 cells were plated into each well of 96-well plates (Nunc, Naperville, Ill., USA) pre-coated with neutralized 1.5 mg/ml PureCol® Bovine Collagen solution, Type 1 (Advanced Biomatrix, San Diego, Calif., USA). After allowing for cell attachment for 4 hours, the media was changed to William's media E (Sigma-Aldrich, Singapore), supplemented with 1 mg/ml bovine serum albumin (Sigma), 1× insulin-transferrin-selenium and 1×MEM non-essential amino acids (Gibco, Carlsbad, Calif., USA), 100 nM dexamethasone (Sigma), 0.3 mg/ml L-glutamine (Lonza, Basel, Switzerland), 100 U/ml penicillin and 100 μg/ml streptomycin (Cellgro, Manassas, Va.). Culture medium was changed daily. Three different lots of hepatocytes were used for the experiments. All assays were performed after 2 days of culture.
as §2, §3

[3] = test system: SM-Hep (hepatocytes derived from hESCs using small molecules); experiment: Cell viability assay (MTT) of small molecule-derived hepatocytes after 24 hours drug treatment; format: cell-based; settings: Homo sapiens, Hepatocyte, read-out: IC50 SM-Hep
Description: as §1, §2, §3

hESCs (H9) = experiment: qPCR of pluripotency and definitive endoderm markers in hESCs treated for 6 days; format: cell-based, human; settings: among small molecule combinations
Description: hESC cell line, H9 (WiCell Research Institute, Madison, Wis.) was cultured and propagated on tissue culture plates coated with matrigel (BD Biosciences, San Jose, Calif., USA) in mTeSRTM 1 media (Stem Cell Technologies, Vancouver, BC, Canada). Cultures were passaged at intervals of 5-7 days by incubation with 1 mg/ml dispase (Stem Cell Technologies) for 5 minutes at 37° C. Colonies were picked under microscopic guidance and replated at 1:3 to 1:6 split ratios. […] (20 ng/ml). […] In human embryonic stem cells (hESCs), manipulations of Nodal and Wnt signaling have been exploited to direct differentiation towards definitive endoderm (DE). […] Therefore, to induce differentiation of HESCs into definitive endoderm using small molecules, the present study analyzed effects of compounds which could substitute for Activin A or/and Wnt signaling. […] Cells were cultured in the presence of diverse combinations of these three compounds for 6 days, and expression of pluripotency marker (OCT4) and definitive endoderm markers (SOX17 and FoxA2) were analyzed using qPCR. […] The expression of pluripotency markers (OCT4, Nanog and SOX2) and definitive endoderm (DE) markers (SOX17 and FOXA2) were analyzed using qPCR. […]

[4] = Table 1 (initial results), cell viability, 24 hours treatment
[5] = Table 2 (updated results), cell viability, 24 hours treatment, PHHs

O=C(O)Cc1ccccc1Nc1c(Cl)cccc1Cl [Diclofenac]
IC50 [1, 4]: 1860 µM | IC50 [2, 4]: 3590 µM | IC50 [2, 5]: 3590 µM | IC50 [3, 4]: 1930 µM

O=C(O)CCCCCC(=O)NN=C1CCCC1 [IDE-2]
FOXA2 expression (hESCs (H9)): highest FOXA2 expression | SOX17 expression (hESCs (H9)): no SOX17 expression was detected

Cc1c(C)c2c(c(C)c1O)CCC(C)(COc1ccc(CC3SC(=O)NC3=O)cc1)O2 (stereo not shown) [Troglitazone]
IC50 [1, 4]: 33.7 µM | IC50 [2, 4]: 85 µM | IC50 [2, 5]: 29.7 µM | IC50 [3, 4]: 31.9 µM

C=C[C@H]1C[N@@]2CC[C@H]1C[C@@H]2[C@@H](O)c1ccnc2ccc(OC)cc12 [Quinidine]
IC50 [1, 4]: 538 µM | IC50 [2, 4]: 198 µM | IC50 [2, 5]: 563 µM | IC50 [3, 4]: 728 µM

C[C@H]1O[C@@H](O[C@H]2[C@@H](O)C[C@H](O[C@H]3[C@@H](O)C[C@H](O[C@H]4CC[C@@]5(C)[C@H](CC[C@@H]6[C@@H]5C[C@@H](O)[C@]5(C)[C@@H](C7=CC(=O)OC7)CC[C@]65O)C4)O[C@@H]3C)O[C@@H]2C)C[C@H](O)[C@@H]1O [Digoxin]
IC50 ([1]; 24 h): 0.25 µM | IC50 [2]: 0.34 µM | IC50 ([3]; 24 h): 0.36 µM

CC(=O)Nc1ccc(O)cc1 [Acetaminophen]
IC50 [1, 4]: 46000 µM | IC50 [2, 4]: 45200 µM | IC50 [2, 5]: 45200 µM | IC50 [3, 4]: 38100 µM

CN(C)CCCN1c2ccccc2Sc2ccc(Cl)cc21 [Chlorpromazine]
IC50 [1, 4]: 61.3 µM | IC50 [2, 4]: 71.8 µM | IC50 [2, 5]: 71.8 µM | IC50 [3, 4]: 66.9 µM
